This is an account of results in PMC7248809, “Differential Proliferation Effect of the Newly Synthesized Valine, Tyrosine and Tryptophan–Naphthoquinones in Immortal and Tumorigenic Cervical Cell Lines” (Molecules, 2020).

The test system of series [1] is SiHa cells (HPV-16 positive cervical tumor line). As to the kind of experiment: Cell proliferation (crystal violet), dose-response, SiHa. Particulars: Homo sapiens, 72 h.
Description: (§1) Immortal and HPV negative cell line HaCaT cells was selected as control for both immortality status and HPV content. […] In order to evaluate the effect of the naphthoquine amino acid derivatives in immortal and tumorigenic cells with HPV positive and negative status we performed a dose-response analysis.
(§2) (A) HaCaT HPV negative cell line cells were treated with 6.25, 12.5, 25, 50, 100 and 200 μM of naphthoquinone amino acid derivatives to assay proliferation rate at 72 h post-treatment. (B) SiHa HPV 16 positive cancer cells were treated with 6.25, 12.5, 25, 50, 100 and 200 μM of naphthoquinone amino acid derivatives to assay proliferation rate at 72 h post-treatment. (C) CaLo HPV 18 positive cancer cells were treated with 6.25, 12.5, 25, 50, 100 and 200 μM of naphthoquinone amino acid derivatives to assay proliferation rate at 72 h post-treatment. […] Cells treated with 0.1% of DMSO were used as Control. * represents statistically significant p < 0.05 value.
(§3) Cell proliferation was quantified by violet crystal dye in 1X phosphate-buffered saline (PBS) (2.7 mM KCl, 1.8 mM KH2PO4, 136 mM NaCl, 10 mM Na2HPO4 pH 7.4). The treated cells were incubated in methanol for 15 min and washed two times with distilled water. Cells were dyed with 0.1% crystal violet and washed three times with water and finally violet crystal was recovered with 10% acid acetic to be analyzed in microplate reader Multiskan GO Spectrophotometer (Thermo Scientific™, Ratastie, Finland).
The subject of series [2] is HaCaT cells (HPV negative non-tumorigenic immortal keratinocytes). Description: Cell proliferation (crystal violet), dose-response, HaCaT. Particulars: Homo sapiens, 72 h.
Description: as §1, §2, §3
Series [3] can be described thus: Cyclic voltammetry in 0.1 M TBABF4/DMSO. The following applies: for irreversible anodic peak (negative potential region) / irreversible oxidation potential peak (positive potential region): Figure 2, vs Ag/Ag+, 100 mV s^−1; for ipa: anodic peak current density; for ipa / Epa / ipc / Epc / E1/2 / ΔEp / |ipa/ipc|: TBABF4 0.1 M/DMSO, 100 mV/s; for Epa: anodic peak potential of redox reaction; for Epa / Epc: vs Ag/Ag+ pseudo-reference; for ipc: cathodic peak current density; for Epc: cathodic peak potential of redox reaction; for E1/2: half-wave potential, E1/2 = (Epa + Epc)/2, vs Ag/Ag+; for ΔEp: potential peak separation, ΔEp = Epc − Epa; for |ipa/ipc|: ratio of anodic to cathodic peak current (reversibility).
Description: Electrochemical studies of naphthoquinone–amino acids (3a–c) and chloride–naphthoquinone–amino acids (4a–c) derivatives were studied by cyclic voltammetry (CV) as previously reported [24]. Briefly, non-aqueous solutions of compounds 3a–c or 4a–c at a concentration of 5 mM were dissolved in dimethyl sulfoxide (DMSO, Sigma–Aldrich, St. Louis, MO, USA) containing 0.1 M tetrabutylammonium tetrafluoroborate (TBABF4, Sigma–Aldrich, St. Louis, MO, USA) as supporting electrolyte. Then, the non-aqueous solutions containing 3a–c or 4a–c were studied by CV in a three-electrode cell using a freshly polished glassy carbon disk electrode (GC) (0.07 cm^2, BASi, West Lafayette, IN, USA) as working electrode and a Pt wire (Alfa-Aesar, Tewksbury, MA, USA) as counter electrode. An Ag/Ag^+ electrode in 0.1 M TBABF4/DMSO was used as pseudo-reference electrode. A potential scan was performed from −2.0 V to 0.75 V vs. Ag/Ag^+ at 100 mV s^−1 in the cathodic direction in order to identify any electron transfer reaction associated to compounds 3a–c or 4a–c using a potentiostat/galvanostat PAR VersaStat 3 (Ametek, Inc. Berwyn, PA, USA). Furthermore, any redox reaction processes of 3a–c or 4a–c were further studied at a scan rate of 10, 25, 50, 100, 200, and 300 mV s^−1. As received TBABF4 and DMSO were used without further purification or drying processes. All the non-aqueous testing solutions were degassed for 30 min with high-purity N2 gas before cyclic voltammetry experiments.

Series [4] concerns CaLo cells (HPV-18 positive cervical tumor line). As to the kind of experiment: Cell proliferation (crystal violet), dose-response, CaLo. Particulars: 72 h.
Description: as §1, §2, §3

In turn, `O=C1C(Cl)=C(NC(Cc2c[nH]c3ccccc23)C(=O)O)C(=O)c2ccccc21` (stereo not shown) [Compound 4c, 2-((3-chloro-1,4-dioxo-1,4-dihydronaphthalen-2-yl)amino)-3-(1H-indol-3-yl)propanoic acid] had an IC50 in series [1] of 3.21 µM. The compound further yielded an IC50 in series [2] of approximately 0.331 µM. Also, in series [3], the “irreversible anodic peak (negative potential region)” value (“irreversible anodic peak” for short) is −0.36 V, the “irreversible oxidation potential peak (positive potential region)” value (“irreversible oxidation potential peak” below) was 0.46 V, the ipa amounted to 0.23 mA cm^−2 and the Epa was −1.05 V. Besides, in series [3], the ipc is −0.27 mA cm^−2, the Epc was −1.17 V, the E1/2 is reported as −1.11 V and the ΔEp was 0.12 V. Also, the “|ipa/ipc|” value in series [3] was 0.85. The same compound registered an IC50 in series [4] of 2.7 µM.

Regarding `CC(C)C(NC1=CC(=O)c2ccccc2C1=O)C(=O)O` (stereo not shown) [Compound 3b, 2-((1,4-dioxo-1,4-dihydronaphthalen-2-yl)amino)-3-methylbutanoic acid], the melting point fell in the range of 170 to 172 °C. The same compound came in with a 50% inhibitory concentration (IC50) in series [1] of 47.2 µM. This compound yielded an IC50 in series [2] of 55.3 µM. Moreover, in series [3], the “irreversible anodic peak” value is recorded as −0.2 V, the “irreversible oxidation potential peak” value amounted to 0.60 V, the ipa came to 0.28 mA cm^−2 and the Epa was −1.16 V. For the same compound, in series [3], the ipc was −0.30 mA cm^−2, the Epc is reported as −1.27 V, the E1/2 is −1.21 V and the ΔEp is reported as 0.12 V. Further, the “|ipa/ipc|” value in series [3] is on record as 0.95. Further, in series [4], the IC50 came out at 57 µM.

Consider `CC(C)C(NC1=C(Cl)C(=O)c2ccccc2C1=O)C(=O)O` (stereo not shown) [Compound 4b, 2-((3-chloro-1,4-dioxo-1,4-dihydronaphthalen-2-yl)amino)-3-methylbutanoic acid], for which the melting point lay in the range of 54 to 56 °C. The compound also returned a concentration for half-maximal inhibition (IC50) in series [1] of 11.3 µM. In series [2], the IC50 was 7.97 µM. In addition, in series [3], the “irreversible anodic peak” value is −0.36 V, the “irreversible oxidation potential peak” value is recorded as 0.57 V, the ipa was determined as 0.21 mA cm^−2 and the Epa is recorded as −1.05 V. Further, in series [3], the ipc is given as −0.25 mA cm^−2, the Epc is recorded as −1.19 V, the E1/2 is −1.12 V and the ΔEp came out at 0.14 V. The “|ipa/ipc|” value in series [3] was determined as 0.83. In addition, the IC50 in series [4] was 2.88 µM.

The compound `O=C1C=C(NC(Cc2c[nH]c3ccccc23)C(=O)O)C(=O)c2ccccc21` (stereo not shown) [Compound 3c, 2-((1,4-dioxo-1,4-dihidronaphthalen-2-yl)amino)-3-(1H-indol-3-yl)propanoic acid] gave an IC50 in series [1] of 28.8 µM. The compound also gave an IC50 in series [2] of 40.8 µM. Further, in series [3], the “irreversible oxidation potential peak” value stood at 0.45 V, the ipa turned out to be 0.26 mA cm^−2, the Epa is −1.19 V and the ipc is on record as −0.27 mA cm^−2. For the same compound, in series [3], the Epc is −1.30 V, the E1/2 is −1.24 V, the ΔEp is on record as 0.11 V and the “|ipa/ipc|” value worked out at 0.95. The half-inhibitory concentration (IC50) in series [4] was determined as 25.2 µM.

Compound `O=C1C=C(NC(Cc2ccc(O)cc2)C(=O)O)C(=O)c2ccccc21` (stereo not shown) [Compound 3a, 2-((1,4-dioxo-1,4-dihydronphthalen-2-yl)amino)-3-(4-hydroxyphenyl) propanoic acid] gave a melting point of 214 to 216 °C. This compound came in with an IC50 in series [1] of 41 µM. Besides, the IC50 in series [2] worked out at 61.6 µM. In series [3], the “irreversible oxidation potential peak” value is “higher than 0.5 V”, the ipa was found to be 0.28 mA cm^−2, the Epa is recorded as −1.15 V and the ipc is −0.30 mA cm^−2. In series [3], the Epc is listed as −1.27 V, the E1/2 was −1.21 V, the ΔEp was found to be 0.13 V and the “|ipa/ipc|” value turned out to be 0.95. In series [4], this compound had an IC50 of 81.1 µM.

With `O=C1C(Cl)=C(NC(Cc2ccc(O)cc2)C(=O)O)C(=O)c2ccccc21` (stereo not shown) [Compound 4a, 2-((3-chloro-1,4-dioxo-1,4-dihydronaphthalen-2-yl)amino)-3-(4-hydroxyphenyl)propanoic acid], it took 6.83 µM to reach half-maximal inhibition in series [1] (IC50). Besides, half-maximal inhibition in series [2] (IC50) was put at 9.88 µM. In addition, in series [3], the “irreversible anodic peak” value was −0.33 V, the “irreversible oxidation potential peak” value was “higher than 0.5 V”, the ipa stood at 0.22 mA cm^−2 and the Epa is −1.04 V. Also, in series [3], the ipc was −0.24 mA cm^−2, the Epc was −1.15 V, the E1/2 is −1.10 V and the ΔEp was 0.11 V. In series [3], the “|ipa/ipc|” value was found to be 0.92. This compound displayed a half-maximal inhibitory concentration (IC50) in series [4] of 7.03 µM.

As usually defined, the IC50 is the midpoint of a concentration-inhibition curve. Read a low IC50 as greater potency. A word on the melting point: it is the temperature, or range, at which the solid turns liquid.
